For experiment [1] the following is noted: times that of sucrose/sugar; reported in WO 94/11391 (b9: compared with 2, 5 and 10% sucrose solutions); cited from earlier work.
Experiment [2] in a line: organoleptic (sensory) test of sweetening potency. As to conditions: for Sweetening potency: value compared with a 4% sucrose aqueous solution. The source says: For example, a sweetening potency of N-[N-[3-(3,4-dihydroxyphenyl)-3-methylbutyl]-L-α-aspartyl]-L-phenylalanine 1-methyl ester was approximately 50,000 times (relative to sugar), and a sweetening potency of N-[N-[3-(3,4,5-trihydroxyphenyl)propyl]-L-α-aspartyl]-L-phenylalanine 1-methyl ester was approximately 25,000 times (relative to sugar).
The structures and the results of the sensory test on some aspartyl dipeptide ester derivatives (represented by the following general formula (1)) formed are shown in Table 1.

Regarding `COC(=O)[C@H](Cc1ccccc1)NC(=O)[C@H](CC(=O)O)NCCCc1ccccc1` [N-[N-(3-phenylpropyl)-L-α-aspartyl]-L-phenylalanine 1-methyl ester], the “sweetening potency (degree of sweetness)” value in experiment [1] is listed as 1,500 times.
With `COC(=O)[C@H](Cc1ccccc1)NC(=O)[C@H](CC(=O)O)NCCCc1ccc(O)c(OC)c1` [N-[N-[3-(3-methoxy-4-hydroxyphenyl)propyl]-L-α-aspartyl]-L-phenylalanine 1-methyl ester], the “sweetening potency (degree of sweetness)” value in experiment [1] is given as 2,500 times.
As for `COC(=O)[C@H](Cc1ccccc1)NC(=O)[C@H](CC(=O)O)NCCCc1ccc(O)cc1O` [Compound 1, N-[N-[3-(2,4-dihydroxyphenyl)propyl]-L-α-aspartyl]-L-phenylalanine 1-methyl Ester], in experiment [2], the “Sweetening potency (relative to sugar)” value was 10,000 times and the Sweetening potency came out at 10000.
As to `COC(=O)[C@H](Cc1ccccc1)NC(=O)[C@H](CC(=O)O)NCCCc1cc(O)c(O)c(O)c1` [Compound 4, N-[N-[3-(3,4,5-trihydroxyphenyl)propyl]-L-α-aspartyl]-L-phenylalanine 1-methyl Ester], the “Sweetening potency (relative to sugar)” value is recorded as 25,000 times in experiment [2] (listed as Example 4) and “approximately 25,000 times” in experiment [2] (listed as N-[N-[3-(3,4,5-trihydroxyphenyl)propyl]-L-α-aspartyl]-L-phenylalanine 1-methyl e). Besides, the Sweetening potency in experiment [2] came out at 25000.
For `COC(=O)[C@H](Cc1ccccc1)NC(=O)[C@H](CC(=O)O)NCCC(C)(C)c1ccc(O)c(O)c1` [Compound 5, N-[N-[3-(3,4-dihydroxyphenyl)-3-methylbutyl]-L-α-aspartyl]-L-phenylalanine 1-methyl Ester], the “Sweetening potency (relative to sugar)” value was 50,000 times in experiment [2] (listed as Example 5) and “approximately 50,000 times” in experiment [2] (listed as N-[N-[3-(3,4-dihydroxyphenyl)-3-methylbutyl]-L-α-aspartyl]-L-phenylalanine 1-met). Also, the Sweetening potency in experiment [2] was determined as 50000.
Consider `COC(=O)[C@H](Cc1ccccc1)NC(=O)[C@H](CC(=O)O)NCCCc1ccc(O)c(O)c1` [Compound 2, N-[N-[3-(3,4-dihydroxyphenyl)propyl]-L-α-aspartyl]-L-phenylalanine 1-methyl Ester], for which, in experiment [2], the “Sweetening potency (relative to sugar)” value is 15,000 times and the Sweetening potency is given as 15000.
As for `COC(=O)[C@H](Cc1ccccc1)NC(=O)[C@H](CC(=O)O)NCCC(C)c1ccccc1` (mixture of isomers) [N-[N-[(RS)-3-phenylbutyl]-L-α-aspartyl]-L-phenylalanine 1-methyl ester], in experiment [1], the “sweetening potency (degree of sweetness)” value is recorded as 1,200 times.
In the case of `COC(=O)[C@H](Cc1ccccc1)NC(=O)[C@H](CC(=O)O)NCCCc1ccc(O)c(O)c1O` [Compound 3, N-[N-[3-(2,3,4-trihydroxyphenyl)propyl]-L-α-aspartyl]-L-phenylalanine 1-methyl Ester], in experiment [2], the “Sweetening potency (relative to sugar)” value was 10,000 times and the Sweetening potency turned out to be 10000.
Take `COC(=O)[C@H](Cc1ccccc1)NC(=O)[C@H](CC(=O)O)NCCC(C)(C)C` [N-[N-(3,3-dimethylbutyl)-L-α-aspartyl]-L-phenylalanine 1-methyl ester]: the “sweetening potency (degree of sweetness)” value in experiment [1] is given as 10,000 times.

The values above are taken from patent publication US6649784B2, “Aspartyl dipeptide ester derivatives and sweeteners” (Ajinomoto Co., Inc., priority 1999, dated 2003).
